US10308618B2, “Blue light cutting optical material comprising a benzotriazole UV absorber” (ESSILOR INTERNATIONAL, priority 2016, dated 2019)

Experiments:
[1] = Solubilization of the benzotriazole UV absorber in the ISO monomer; format: physicochemical; settings: in isocyanate monomer, compared with comparative benzotriazole VII
Procedure: For polythiourethane matrix, solubility during processing and compatibility of inventive and comparative benzotriazoles were assessed in two stages. First, initial solubilization of the benzotriazole UV absorber in the isocyanate monomer was assessed.

[2] = Transmission spectra: transmittance and light cut-off wavelength; format: physicochemical
Description: The light cut-off wavelength of the optical material is preferably higher than or equal to 400 nm, more preferably higher than or equal to 405 nm, and even more preferably higher than or equal to 410 nm. It is preferably lower than 465 nm, more preferably lower than 450 nm. In the present disclosure, the light cut-off wavelength is defined as the wavelength below which light transmission becomes lower than 1%. In other words, it is the highest wavelength for which the transmittance is lower than 1%. The higher the light cut-off wavelength, the better the blue light cutting properties.
In the present description, unless otherwise specified, optical transmittances/transmissions are measured at the center of the optical article for a thickness ranging from 0.7 to 2 mm, preferably 2 mm, at normal incidence. As used herein, optical transmittance within a wavelength range is an average of light transmitted within this range and is not weighted according to the sensitivity of the eye at each wavelength of the range, unless otherwise specified. Last, optical transmittance is measured for optical articles having no coatings, in particular no antireflective coatings.
The light cut-off wavelength was determined from the transmission spectra, which are shown on FIGS. 1 and 2. […]

CCCCCCCCOC(=O)CCc1cc(-n2nc3ccc(Cl)cc3n2)c(O)c(C(C)(C)C)c1 [Benzotriazole IV, n-octyl-3-[3-tert-butyl-4-hydroxy-5-(5-chloro-2H-benzotriazol-2-yl)phenyl] propionate]
Dissolution properties [1]: improved dissolution properties

octyl-3-[3-tert-butyl-4-hydroxy-5-(2H-benzotriazol-2-yl)-phenyl] propionate branched and linear alkyl esters [Eversorb® 82]
optical transmittance for each light wavelength ranging from 280 to 400 nm ([2]; 2-mm thick layer of material): lower than 1% | T (%) at 430 nm ([2]; 2 mm thick material, 430 nm): higher than 65%
